Laboratory results as given in the NIST ThermoML archive (doi:10.1016/j.fluid.2011.09.014).
± gives the expanded uncertainty stated by the source.

Legend:
[1] = refractive index (Na D-line) (dimensionless); details: 101.33 kPa, Liquid, Standard Abbe refractometry
[2] = Liquid; for mass density: 101.33 kPa, Vibrating tube method; for Normal boiling temperature: Closed cell (Static) method
[3] = refractive index (Na D-line) (dimensionless); xn = mol fraction of the nth substance listed; details: 294.15 K; 101 kPa; Liquid; Standard Abbe refractometry; x2 = 0.75
[4] = xn = mol fraction of the nth substance listed; details: 293.15 K; 101 kPa; Liquid; Vibrating tube method; x2 = 0.75

SMILES	refractive index ([1]; 293.15 K)	mass density ([2]; 298.15 K)	Normal boiling temperature [2]	mass density ([2]; 293.15 K)	refractive index [3]	mass density [4]	refractive index ([1]; 298.15 K)
CCC(=O)O [propanoic acid]	1.3808 ± 0.0004	988.1 ± 0.5 kg/m3	141.10 ± 0.2 °C				
O=CO [formic acid]	1.3711 ± 0.0006		100.90 ± 0.2 °C	1218.5 ± 1.4 kg/m3			
CC(=O)CC(C)CC(C)C (configuration not stated) [4,6-dimethyl-2-heptanone] + CC(C)CC(=O)CC(C)C					1.4118 ± 0.0005	806.5 ± 0.5 kg/m3	
CC(=O)O [acetic acid]	1.3721 ± 0.0004	1044.5 ± 0.6 kg/m3	117.90 ± 0.2 °C				
CCCCCOC(C)=O [pentyl ethanoate]	1.4025 ± 0.0006		149.10 ± 0.2 °C	875.9 ± 0.8 kg/m3			
CC(C)OC(C)C [diisopropyl ether]		719 ± 0.4 kg/m3	68.20 ± 0.2 °C				1.3655 ± 0.0004
